Experimental data: patent US12329739B2, “Isoflavonoid compounds and methods for the treatment of cancer” (Aardvark Therapeutics, Inc., priority 2010, dated 2025)
≈ marks a conversion by molar mass, not a printed value.

How the values were obtained:
[1] = test system: DU145; assay: MTT proliferation assay, DU145; type: cell-based; settings: Homo sapiens, DU-145; Prostate, DU145, 120 h of exposure
Protocol: (§1) Proliferation Assays. IC50 values were determined for each cell line. Cells were seeded in 96-well plates at an appropriate cell density as determined from growth kinetics analysis and cultured for 5 days in the absence and presence of the test compounds. Cell proliferation was assessed after the addition of 20 μl of 3-4,5 dimethylthiazol-2,5-diphenyl tetrazolium bromide (MTT, 5 mg/ml in PBS, Sigma) for 5 hrs at 37° C. according to manufacturer's instructions. IC50 values were calculated from semi-log plots of % of control proliferation on the y-axis against log dose on the x-axis.
(§2) Anti-proliferative Activity of Isoflavonoid Derivatives. IC50 values were determined for each cell line after 120 h of exposure.

[2] = test system: CP70; assay: MTT proliferation assay, CP70; type: cell-based
Outline: (§3)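 Five-day continuous exposure to test compounds, then MTT uptake measured after 5 hrs at 37° C. Potency expressed as IC50 relative to untreated control growth.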

[3] = test system: CALU3; assay: MTT proliferation assay, CALU3; type: cell-based; settings: Homo sapiens, Calu-3; NSCLC, CALU3, 120 h of exposure
Protocol: as §1, §2

[4] = test system: HuH-7; assay: MTT proliferation assay, HuH-7; type: cell-based, human; settings: Homo sapiens; Liver, HuH-7, 120 h of exposure
Protocol: The human hepatocellular carcinoma lines HepG2 (HB-8065), SK-HEP-1 (HTB-52) and the normal human lung fibroblast line IMR-90 (CCL-186) were cultured in Minimum Essential Eagles Medium containing 2 mM L-glutamine, 2.2 g/L sodium bicarbonate, supplemented with 1 mM sodium pyruvate and 0.1 mM non-essential amino acids. The human hepatocellular carcinoma line JHH-1 (JCRB1062) was cultured in Williams E Medium (Invitrogen) containing 2.2 g/L sodium bicarbonate, supplemented with 2 mM L-glutamine. The hepatocellular carcinoma line HuH-7 (JCRB0403) was cultured in DMEM, supplemented with 2 mM L-glutamine.
as §1, §2

[5] = test system: A2058; assay: MTT proliferation assay, A2058; type: cell-based
Outline: as §3

[6] = test system: A2780 ovarian cancer cells; assay: Combination with carboplatin, proliferation of A2780 cells; type: cell-based
Protocol: In vitro toxicity in normal and cancer cells. Cells were seeded in 96-well plates at an appropriate cell density as determined from growth kinetics analysis. Depending on the plating efficiency and lag phase of individual cell lines, cells were allowed to plate down prior to drug exposure. Intra-experimental single agent controls were included to ensure IC50 values obtained for each cell line matched previous IC50 determinations. Four analogue concentrations were employed in each analysis. Analogue concentrations used in each assay were chosen based on IC50 values, which formed the top concentration of analogue used. Subsequent concentrations were chosen based on simple ½ or 1/10 dilutions of the top analogue concentration employed (i.e. 2, 1, 0.5, 0.25 μM). Nine 1/10 serial dilutions of chemotherapeutic were employed with the top chemotherapeutic concentration being 50 μM.
For combined analysis, analogue concentrations were held constant through 1/10 serial dilutions of chemotherapeutic in growth medium (top chemotherapeutic concentration employed was 50 μM). Combined cultures were cultured for 5 days.
The sequence of administration effect of each agent on chemotherapeutic IC50 values was assessed by exposing plated cells to a single agent in sequence for 24 hr. To assess the isoflavonoid derivative→chemotherapeutic sequence, plated cells were first exposed to the appropriate analogue concentrations and incubated at 37° C. for 24 hr. Cells were washed with growth medium and then exposed to the appropriate chemotherapeutic concentrations and incubated for 24 hr. Cells were then washed and incubated for a further 3 days. To assess the chemotherapeutic→isoflavonoid derivative sequence, the procedure was reversed.
Cell proliferation was assessed after the addition of 20 μl of 3-4,5 dimethylthiazol-2,5-diphenyl tetrazolium bromide (MTT, 2.5 mg/ml in PBS, Sigma) for 3-4 hrs at 37° C. according to manufacturer's instructions. IC50 values were calculated from semi-log plots of % of control proliferation on the y-axis against log dose on the x-axis.
3-D model analysis of the cytotoxic interaction between drug A and drug B enables the representation of predicted inhibitory effect of two drugs in combination in 3 dimensions to reveal actual regions of synergy or antagonism. The 3D synergy plots are based on a theory of “Theoretical Additivity” (TA or […]) as outlined by Kanzawa et al. Theoretical Additivity was calculated from the cytotoxicities of drug A and drug B as monotherapies using the following formula which assumes the drugs are mutually exclusive inhibitors: […]
The TA is calculated for each combination of drug concentrations and subtracted from the observed experimental effect for each combination to give a measurement of synergistic or enhanced action.
Combination index (CI) analysis, which employs the median-effect principle correlating drug dose to cytotoxicity, was also employed to assess synergy. The median-effect equation is utilized to calculate the dose of a drug that inhibits “x” percent of cells (Chou and Talalay, 1984). D=Dm[fa/(1−fa)]^1/m
In vitro Assessment of Combination of Optically Active Compound 31 and Carboplatin. Combination studies employed both 24 hr concurrent exposure, and 24 hr sequential exposure (racemic compound 32→Carboplatin) regimens. In both studies, four analogue concentrations (0.25, 0.5, 1 and 5 μM) were held constant against titrated carboplatin. When 1 and 5 μM of compound 32 was assessed in combination with the lowest concentration of carboplatin employed in this study (0.4 μM), no IC50 for carboplatin was achieved due the high levels of cell kill observed (30-40% of control).

[7] = Solubility in Captisol solution; type: physicochemical; settings: 20% Captisol solution, aqueous with cosolvent or surfactant or cyclodextrin, 25° C., read-out: solubility limit
Protocol: (20% Captisol®). Formulation is carried out under aseptic conditions. Sterility is achieved by terminal filtration through a 0.22 micron filter.

[8] = test system: A2780 ovarian cancer cells; assay: Combination with carboplatin, proliferation of A2780 cells; type: cell-based; settings: 0.5, 1 and 5 μM of compound plus 0.4 μM carboplatin

IC50 [1]: 150 to 500 nM
IC50 [3]: 150 to 500 nM
IC50 [4]: 150 to 500 nM
solubility [7]: 27.9 mg/mL (≈ 83.4 mM)
Compound: Oc1ccc([C@H]2c3ccc(O)cc3OC[C@H]2c2ccc(O)cc2)cc1 [Compound 31, d-cis-3-(4-hydroxyphenyl)-4-(4-hydroxyphenyl)chroman-7-ol]
IC50 ([2]; 120 h, Ovarian, CP70, 120 h of exposure): 510 to 1500 nM
IC50 ([2]; Table 2, Ovarian, CP70, 120 hrs of exposure): 150 to 500 nM
IC50 ([5]; Homo sapiens, A2058, 120 h, Melanoma, A2058, 120 h of exposure): ≤ 150 nM
IC50 ([5]; Table 2, Melanoma, A2058, 120 hrs of exposure): ≤ 150 nM
enhancement of the anti-cancer effect of carboplatin ([6]; 0.25 μM of compound, A2780, depending on exposure regimen (24 hr concurrent or sequential)): 7-11 fold
potency of the inhibition of proliferation compared with compound 34 ([6]; 0.5 μM of compound in combination with carboplatin, A2780): superior
compound concentration giving maximal activity enhancement with carboplatin ([6]; 3D method of Kanzawa, 12.5 μM carboplatin, A2780): 0.25 µM
activity enhancement in combination with carboplatin ([6]; A2780 cell line, 31 compared with compound 32): superior in its ability to augment carboplatin toxicity
retardation of A2780 cell proliferation compared with compound 34 ([6]; sequential exposure (24 h), 0.25 μM of compound followed by carboplatin): superior retardation of A2780 cell proliferation
cell kill level observed (no IC50 for carboplatin achieved) [8]: 25-40 % of control
